According to PMC6720825, “Thiol-ene "Click" Synthesis and Pharmacological Evaluation of C-Glycoside sp^2-Iminosugar Glycolipids” (Molecules, 2019):
“Also recorded” adds a separate entry of the source.

How the values were obtained:
THP-1 cells = assay: Cellular toxicity (MTT assay) in THP-1 cells; type: cell-based, human; conditions: for EC50: Homo sapiens, THP-1, MTT assay, 72 h at 37 °C
Protocol: Human myelomonocytic cell line THP-1 was grown at 37 °C and 5% CO2 in RPMI-1640 supplemented with 10% iFBS, 2 mM […], 100 U/mL penicillin, and 100 μg/mL streptomycin; 3 × 10^4 cells/well in 96-well plates were differentiated to macrophages with 20 ng/mL of PMA treatment for 48 h followed by 24 h of culture in fresh medium. Cellular toxicity of all compounds was determined using the colorimetric MTT-based assay after incubation at 37 °C for 72 h in the presence of increasing concentrations of compounds [71].

β-Glcase (Bovine Liver) = molecular target: T1, β-Glcase (Bovine Liver) (Bos taurus, UniProt F1MNT6); assay: Glycosidase inhibition (Ki), bovine liver β-glucosidase; type: biochemical; conditions: mean ± SD, three independent determinations; competitive inhibition
T1 sequence (F1MNT6 1-469): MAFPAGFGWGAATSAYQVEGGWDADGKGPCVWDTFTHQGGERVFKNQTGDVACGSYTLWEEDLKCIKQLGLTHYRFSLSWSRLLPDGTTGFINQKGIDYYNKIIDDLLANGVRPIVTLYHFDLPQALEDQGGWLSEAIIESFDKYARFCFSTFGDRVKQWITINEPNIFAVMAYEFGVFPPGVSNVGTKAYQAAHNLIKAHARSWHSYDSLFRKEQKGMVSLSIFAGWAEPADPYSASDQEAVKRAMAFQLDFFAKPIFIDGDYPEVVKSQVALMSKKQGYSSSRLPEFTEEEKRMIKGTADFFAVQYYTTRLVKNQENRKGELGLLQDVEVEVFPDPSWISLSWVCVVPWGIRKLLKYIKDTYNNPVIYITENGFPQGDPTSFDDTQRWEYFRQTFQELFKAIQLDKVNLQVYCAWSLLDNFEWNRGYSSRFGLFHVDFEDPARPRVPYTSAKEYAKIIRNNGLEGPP
Description: (§1) The inhibitory properties of the new sp^2-IGLs 1–12 and the α-C-allyl ONJ and OGJ glycosides 15, and 24 were examined against a panel of commercial glycosidases that included the α-glucosidases maltase (Saccharomyces cerevisiae) and amyloglucosidase (Aspergillus niger), the β-glucosidases from almonds and bovine liver, α-galactosidase from green coffee beans, β-galactosidase from Escherichia coli, α-mannosidase from Jack beans, and β-mannosidase from Helix pomatia. The corresponding inhibition constant (Ki) values are collected in Table 1.
(§2) Inhibition constant (Ki) values were determined by spectrophotometrically measuring the residual hydrolytic activities of the glycosidases against the respective o- (for β-galactosidase from E. coli) or p-nitrophenyl α- or β-D-glycopyranoside (for other glycosidases) in the presence of the iminosugars. Each assay was performed in phosphate buffer or phosphate-citrate buffer (for α- or β-mannosidase and amyloglucosidase) at the optimal pH for the enzymes. The reactions were initiated by addition of the enzyme to a solution of the substrate in the absence or presence of various inhibitor concentrations. The mixture was incubated for 10–30 min at 37 °C or 55 °C (for amyloglucosidase) and the reaction was quenched by addition of 1 M Na2CO3. Reaction times were appropriate to obtain 10–20% conversion of the substrate in order to achieve linear rates. The absorbance of the resulting mixture was determined at 405 nm. Approximate value of Ki was determined from the slope of Dixon plots using a fixed concentration of substrate (around the Km value for the different glycosidases) and various concentrations of inhibitor. Full Ki determinations and enzyme inhibition mode were determined from the slope of Lineweaver–Burk plots and double reciprocal analysis. Representative examples of Dixon and Lineweaver–Burk plots are shown in the Supplementary materials.

[1] = test system: human lung fibroblast MRC-5 cells; assay: Cellular toxicity (MTT assay) in MRC-5 cells; type: cell-based; conditions: for EC50: Homo sapiens, MRC5, MTT assay, 72 h at 37 °C; for SI (EC50 MRC-5/EC50 parasite): Selectivity Index
[2] = test system: human solid tumor cell lines A549, SW1573 (lung), HBL-100, T-47D (breast), HeLa (cervix), WiDr (colon); assay: Antiproliferative activity (SRB assay) against a panel of six human solid tumor cell lines; type: cell-based; conditions: for GI50: read-out: GI50 (concentration to achieve 50% growth inhibition), 48 h, tested 1 to 100 μM, only values below 100 μM significant
Protocol: The antiproliferative activity of all the sp^2-iminosugar C-glycosides (1–12) was evaluated against a panel of six representative human solid tumor cell lines including lung (A549 and SW1573), breast (HBL-100, T-47D), cervix (HeLa), and colon (WiDr).
All reagents were used as purchased from commercial suppliers without further purification. The human solid tumor cell lines A549 (lung), HBL-100 (breast), HeLa (cervix), SW1573 (lung), T-47D (breast), and WiDr (colon) were used in this study. These cell lines were a kind gift from Prof. G. J. Peters (VU Medical Center, Amsterdam, The Netherlands).
Cells were inoculated onto 96-well microtiter plates in a volume of 100 μL per well at densities of 2500 (A549, HBL-100, HeLa, and SW1573) and 5000 (T-47D and WiDr) cells per well, based on their doubling times. Compounds were initially dissolved in DMSO at 400 times the desired final maximum test concentration. Control cells were exposed to an equivalent concentration of DMSO (0.25% v/v, negative control). Each agent was tested in triplicate at different dilutions in the range of 1 to 100 μM. The drug treatment started on day 1 after plating. Drug incubation times were 48 h, after which cells were precipitated with 25 μL ice-cold TCA (50% w/v) and fixed for 60 min at 4 °C. Then the SRB assay was performed. The optical density (OD) of each well was measured at 530 nm, using BioTek’s PowerWave XS Absorbance Microplate Reader. Values were corrected for background OD from wells only containing medium. The antiproliferative activity for each compound, expressed as GI50 values, was calculated according to NCI formulas.

[3] = test system: intracellular amastigotes of Leishmania donovani MHOM/ET/67/HU3 line; assay: Susceptibility of intracellular Leishmania amastigotes (luciferase assay); type: cell-based; conditions: L. donovani in THP-1 macrophages, 72 h at 37 °C, threshold 20 μM
Protocol: The leishmanicidal activity of all the synthesized sp^2-iminosugar C-glycosides (1–12) was evaluated against intracellular amastigotes of Leishmania donovani MHOM/ET/67/HU3 line with luciferase gene integrated into the parasite genome. […] A strong influence of the nature of the lipid chain α-linked to the pseudoanomeric position of the bicyclic core in the sp^2-IGLs was inferred from the corresponding data. […] The longer-chain sp^2-IGLs 2 and 8 were over the 20 μM concentration threshold in this assay. In the sulfone series, the results evidenced some disparity between the ONJ and OGJ epimers.
Macrophage-differentiated THP-1 cells, which are considered a suitable model for human macrophages, were plated at a density of 3 × 10^4 or 3 × 10^5 macrophages/well in 96-well white polystyrene microplates or 24-well tissue culture chamber slides, respectively, and were infected at a macrophage/parasite ratio of 1:10 with L. donovani promastigotes. Twenty-four hours after infection at 35 °C and 5% CO2, extracellular parasites were removed by washing with serum-free medium. Infected cell cultures were then incubated at different compound concentrations in RPMI 1640 medium plus 10% iFBS at 37 °C with 5% CO2 for 72 h. To determine the susceptibility of L. donovani LUC amastigotes, infected macrophages maintained in 96-well plates were lysed and then luminescence intensity was measured as indicative of the intracellular parasite growth, using the Luciferase Assay System Kit (Promega, Madison, Wis.) according to the instructions of the supplier. To determine the susceptibility of L. donovani HU3 amastigotes, infected macrophages maintained in 24-well plates were fixed for 30 min at 4 °C with 2.5% paraformaldehyde phosphate-buffered saline (PBS; 1.2 mM KH2PO4, 8.1 mM Na2HPO4, 130 mM NaCl, and 2.6 mM KCl adjusted to pH 7) and permeabilized with 0.1% Triton X-100 in PBS for 30 min. Intracellular parasites and macrophages were detected by nuclear staining with ProLong® Gold antifade reagent plus DAPI (Invitrogen). The percentage infection and mean number of amastigotes from infected macrophages were determined with 200 macrophages/well.

α-Glcase (Yeast Maltase) = molecular target: T2, α-Glcase (Yeast Maltase) (Saccharomyces cerevisiae, UniProt P53341); assay: Glycosidase inhibition (Ki), yeast maltase α-glucosidase; type: biochemical; conditions: for Ki, α-Glcase (Yeast Maltase): mean ± SD, three independent determinations, competitive inhibition
T2 construct: purchased
Description: as §1, §2

[4] = test system: different human tumor cell lines; set-up: method as in doi:10.1039/C5RA02627J; conditions: read-out: GI50 against different human tumor cell lines; cited from earlier work
[5] = test system: intracellular amastigotes of Leishmania donovani (amastigotes HU3); set-up: method as in doi:10.1039/C5RA02627J; conditions: cited from earlier work; for EC50: intracellular amastigotes of Leishmania donovani
A549, lung = test system: A549, lung; set-up: method as in doi:10.1039/C5RA02627J; conditions: Figure 1; cited from earlier work
[6] = molecular target: T3, green coffee bean α-galactosidase (Coffea arabica, UniProt Q42656); assay: Glycosidase inhibition, green coffee bean α-galactosidase; type: biochemical, green coffee beans; conditions: 1 mM concentration
T3 construct: purchased
Description: as §1
Inhibition constant (Ki) values were determined by spectrophotometrically measuring the residual hydrolytic activities of the glycosidases against the respective o- (for β-galactosidase from E. coli) or p-nitrophenyl α- or β-D-glycopyranoside (for other glycosidases) in the presence of the iminosugars. […] The absorbance of the resulting mixture was determined at 405 nm. Approximate value of Ki was determined from the slope of Dixon plots using a fixed concentration of substrate (around the Km value for the different glycosidases) and various concentrations of inhibitor. Full Ki determinations and enzyme inhibition mode were determined from the slope of Lineweaver–Burk plots and double reciprocal analysis. […]

MDA-MB-231, breast = test system: MDA-MB-231, breast; set-up: method as in PMID 24124558, PMID 28145580; conditions: Figure 1; cited from earlier work
MCF-7, breast = test system: MCF-7, breast; set-up: method as in PMID 24124558, PMID 28145580; conditions: Figure 1; cited from earlier work
T-47D, breast = test system: T-47D, breast; set-up: method as in doi:10.1039/C5RA02627J; conditions: Figure 1; cited from earlier work

T2 sequence (P53341 whole entry): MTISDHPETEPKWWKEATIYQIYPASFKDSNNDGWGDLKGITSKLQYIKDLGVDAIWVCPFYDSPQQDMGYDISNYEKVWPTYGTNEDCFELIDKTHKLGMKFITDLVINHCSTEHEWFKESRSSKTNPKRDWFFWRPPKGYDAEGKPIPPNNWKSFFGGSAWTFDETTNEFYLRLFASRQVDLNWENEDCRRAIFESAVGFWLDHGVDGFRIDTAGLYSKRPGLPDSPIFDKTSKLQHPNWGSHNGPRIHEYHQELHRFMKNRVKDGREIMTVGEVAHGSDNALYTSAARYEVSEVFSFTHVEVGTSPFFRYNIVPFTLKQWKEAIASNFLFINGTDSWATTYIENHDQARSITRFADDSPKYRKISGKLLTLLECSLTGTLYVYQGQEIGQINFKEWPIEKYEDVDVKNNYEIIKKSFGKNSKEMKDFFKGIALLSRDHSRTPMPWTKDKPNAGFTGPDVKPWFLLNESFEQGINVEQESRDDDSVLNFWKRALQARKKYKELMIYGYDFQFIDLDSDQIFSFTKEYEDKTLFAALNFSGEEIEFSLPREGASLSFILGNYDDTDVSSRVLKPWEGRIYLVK
T3 sequence (Q42656 16-378): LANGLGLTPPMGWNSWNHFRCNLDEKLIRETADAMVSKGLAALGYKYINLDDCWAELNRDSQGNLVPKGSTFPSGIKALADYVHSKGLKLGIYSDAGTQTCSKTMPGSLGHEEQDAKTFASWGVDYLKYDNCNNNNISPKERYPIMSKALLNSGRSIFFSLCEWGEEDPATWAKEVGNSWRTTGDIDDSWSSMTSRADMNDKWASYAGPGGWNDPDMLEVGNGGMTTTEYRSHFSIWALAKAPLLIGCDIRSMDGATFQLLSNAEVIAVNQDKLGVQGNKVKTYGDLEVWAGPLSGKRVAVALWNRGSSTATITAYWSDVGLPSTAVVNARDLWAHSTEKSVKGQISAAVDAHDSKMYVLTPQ

Q: With `CC(C)(C)OC(=O)NCCSCCC[C@@H]1[C@H](O)[C@@H](O)[C@@H](O)[C@H]2COC(=O)N12` [Compound 9, (1R)-1-[3-(N-tert-Butoxycarbonylaminoethylthio)propyl]-5N,6O-oxomethylidene-1-deoxygalactonojirimycin] as the molecule, how does the EC50 (THP-1 cells) read?
A: The EC50 was over 200 µM.

Q: What about the “Ki, β-Glcase (Bovine Liver)” value (β-Glcase (Bovine Liver)) of the same molecule?
A: Its value is “n.i”.

Q: What about the EC50 [1] of the same molecule?
A: The EC50 was 140 ± 17.3 µM.

Q: And the “SI (EC50 MRC-5/EC50 parasite)” value [1]?
A: The value was 10.44.

Q: And the “GI50 (concentration to achieve 50% growth inhibition)” value ([2]; 48 h, tested 1 to 100 μM, only values below 100 μM significant)?
A: The value was “did not show any significant antiproliferative activity; also recorded: did not display significant antiproliferative activity”.

Q: And the GI50 [2]?
A: Its GI50 is over 100 µM.

Q: And the EC50 [3]?
A: The EC50 was 13.4 ± 1.13 µM.

Q: What about the “Ki, α-Glcase (Yeast Maltase)” value (α-Glcase (Yeast Maltase)) of the same molecule?
A: The value was “n.i”.

Q: What does the source list for `CCCCCCCCCCCCS[C@@H]1[C@H](O)[C@@H](O)[C@H](O)[C@H]2COC(=O)N21` [DS-ONJ]?
A: GI50 [4]: < 20 µM; Improvement of leishmanicidal potency relative to OS-ONJ [5]: up to 5 fold; EC50 [5]: 20.5 µM; GI50 (A549, lung): 16 µM

Q: With `C=CC[C@@H]1[C@H](O)[C@@H](O)[C@@H](O)[C@H]2COC(=O)N12` [Compound 24, (1R)-1-Allyl-5N,6O-oxomethylidene-1-deoxygalactonojirimycin] as the molecule, how does the “Inhibition of green coffee bean α-galactosidase” value [6] read?
A: Its value is “Neither epimeric OGJ sp^2-IGLs 7–12 nor α-allyl OGJ glycoside 24 behaved as inhibitors”.

Q: What about the “Ki, β-Glcase (Bovine Liver)” value (β-Glcase (Bovine Liver)) of the same molecule?
A: The value was “n.i”.

Q: What about the “Ki, α-Glcase (Yeast Maltase)” value (α-Glcase (Yeast Maltase)) of the same molecule?
A: Its value is “n.i”.

Q: Which results are given for `C=CC[C@@H]1[C@H](O)[C@@H](O)[C@H](O)[C@H]2COC(=O)N12` [Compound 15, (1R)-1-Allyl-5N,6O-oxomethylidene-1-deoxynojirimycin]?
A: Ki, β-Glcase (Bovine Liver) (β-Glcase (Bovine Liver)): n.i.; Ki (α-Glcase (Yeast Maltase)): 79 ± 8 µM

Q: Which EC50 (THP-1 cells) does the source give for `CCCCCCCCSCCC[C@@H]1[C@H](O)[C@@H](O)[C@@H](O)[C@H]2COC(=O)N12` [Compound 7, (1R)-1-[3-(Octylthio)propyl]-5N,6O-oxomethylidene-1-deoxygalactonojirimycin] here?
A: The EC50 was 128 ± 5.71 µM.

Q: What about the “SI (EC50 THP-1/EC50 parasite)” value (THP-1 cells; Selectivity Index) of the same molecule?
A: Its value is 12.06.

Q: What about the “Ki, β-Glcase (Bovine Liver)” value (β-Glcase (Bovine Liver)) of the same molecule?
A: The value was “n.i”.

Q: And the EC50 [1]?
A: Its EC50 is 60.4 ± 2.8 µM.

Q: And the “SI (EC50 MRC-5/EC50 parasite)” value [1]?
A: The value was 5.72.

Q: What about the GI50 [2] of the same molecule?
A: Its GI50 is 14 to 54 µM.

Q: And the EC50 [3]?
A: Its EC50 is 10.6 ± 1.51 µM.

Q: And the “Ki, α-Glcase (Yeast Maltase)” value (α-Glcase (Yeast Maltase))?
A: Its value is “n.i”.

Q: Which IC50 (MDA-MB-231, breast) does the source give for `CCCCCCCC[C@@H]1[C@H](O)[C@@H](O)[C@H](O)[C@H]2COC(=O)N12` [OC-ONJ] here?
A: The IC50 was 44 µM.

Q: And the IC50 (MCF-7, breast)?
A: The IC50 was 26 µM.

Q: With `CCCCCCCCCCCCS[C@@H]1[C@H](O)[C@@H](O)[C@@H](O)[C@H]2COC(=O)N21` [DS-OGJ] as the molecule, how does the GI50 (T-47D, breast) read?
A: Its GI50 is 18 µM.

Q: And the EC50 [5]?
A: The EC50 was 15.5 µM.

Q: Which IC50 (MDA-MB-231, breast) does the source give for `CCCCCCCCS[C@@H]1[C@H](O)[C@@H](O)[C@H](O)[C@H]2COC(=O)N21` [OS-ONJ] here?
A: The IC50 was 35 µM.

Q: And the EC50 [5]?
A: The EC50 was 73.3 µM.

Q: What about the IC50 (MCF-7, breast) of the same molecule?
A: The IC50 was 37 µM.
